Experimental findings from ChEMBL document CHEMBL1135630 (J Med Chem, 2002) are described below.

Test [1] is described as follows: Inhibition of [3H]- epibatidine binding at the Nicotinic acetylcholine receptor alpha beta (nAChR) in male rat cerebral cortex. Format: tissue-based.
The species entered for test [2] is Rattus norvegicus. Nature of the test: Agonist activity against alpha beta Nicotinic acetylcholine receptor (nAChR) in male rat cerebral cortex using antinociceptive assay in hot plate test. The test is classed as functional.
The species named for test [3] is Rattus norvegicus. Put plainly: Agonist activity against alpha beta Nicotinic acetylcholine receptor (nAChR) in male rat cerebral cortex using antinociceptive assay in tail flick test. The test is classed as functional.
The species named for test [4] is Rattus norvegicus. Put plainly: Agonist activity against alpha beta Nicotinic acetylcholine receptor (nAChR) in male rat cerebral cortex using antinociceptive assay in hypothermia test. Format: functional.
Test [5] concerns the target Neuronal acetylcholine receptor subunit alpha-7 (Rattus norvegicus, UniProt Q05941). Nature of the test: Inhibition of [125I]- iodo-MLA binding at the Nicotinic acetylcholine receptor alpha-7 (nAChR) in male rat cerebral cortex. Format: tissue-based.
The test system of test [6] is Rattus norvegicus. Nature of the test: Antagonist activity after subcutaneously administration of nicotine at a dose of 2.5 mg/kg in tail-flick test at a concentration of 0.05 mg/kg. The test is classed as functional. Details: scale not given: the % may be the effect or the level left. (In general: In hot-plate and tail-flick tests a longer latency is read as antinociception.)

Test [7] deals with Rattus norvegicus. Put plainly: Antagonist activity after subcutaneously administration of nicotine at a dose of 2.5 mg/kg in hot- plate test at a concentration of 0.05 mg/kg. The test is classed as functional. Details: scale not given: the % may be the effect or the level left.
Test [8] is filed under the species Rattus norvegicus. Put plainly: Agonist activity against alpha beta Nicotinic acetylcholine receptor (nAChR) in male rat cerebral cortex in antinociceptive assay in hot plate test. The test is classed as functional.
The species entered for test [9] is Rattus norvegicus. Put plainly: Agonist activity against alpha beta Nicotinic acetylcholine receptor (nAChR) in male rat cerebral cortex in antinociceptive assay in tail flick test. Format: functional.
The species entered for test [10] is Rattus norvegicus. Put plainly: Agonist activity against alpha beta Nicotinic acetylcholine receptor (nAChR) in male rat cerebral cortex in antinociceptive assay in hypothermia test. Format: functional.
The subject of test [11] is Rattus norvegicus. Nature of the test: Antagonist activity after subcutaneously administration of nicotine at a dose of 2.5 mg/kg in tail-flick test at a concentration of 0.01 mg/kg. Format: functional. Set-up: scale not given: the % may be the effect or the level left.
The test system of test [12] is Rattus norvegicus. Put plainly: Antagonist activity after subcutaneously administration of nicotine at a dose of 2.5 mg/kg in hot- plate test at a concentration of 0.01 mg/kg. The test is classed as functional. Details: scale not given: the % may be the effect or the level left.
For test [13], the system named is Rattus norvegicus. Nature of the test: Antagonist activity after subcutaneously administration of nicotine at a dose of 2.5 mg/kg in hotplate test at a concentration of 0.05 mg/kg. Format: functional. Set-up: scale not given: the % may be the effect or the level left.
In test [14] the target is T1, Neuronal acetylcholine receptor (Rattus norvegicus) (UniProt P04757+P09483+P12389+P12390+P12392+P43144+Q9JLB5+P12391+P43143+P20420+Q05941). Nature of the test: Agonist activity against alpha beta Nicotinic acetylcholine receptor (nAChR) in male rat cerebral cortex in antinociceptive assay in hot plate test at a dose of 10 mg/kg. Format: functional, organism-based. Details: dose 10 mg/kg.

Test [15] addresses T1, Neuronal acetylcholine receptor (Rattus norvegicus). Put plainly: Agonist activity against alpha beta Nicotinic acetylcholine receptor (nAChR) in male rat cerebral cortex in antinociceptive assay in hypothermia test at a dose of 10 mg/kg. Format: functional, organism-based. Set-up: dose 10 mg/kg.
The target is the same in test [16]. Put plainly: Agonist activity against alpha beta Nicotinic acetylcholine receptor (nAChR) in male rat cerebral cortex in antinociceptive assay in tail flick test at a dose of 10 mg/kg. The test is classed as functional, organism-based. Details: dose 10 mg/kg.
Test [17] concerns Rattus norvegicus. Put plainly: Antagonist activity after subcutaneously administration of nicotine at a dose of 2.5 mg/kg in hot- plate test, the values expressed as 95% confidence limit (value in parentheses is 95% confidence limits). The test is classed as functional. As to conditions: route subcutaneous.
The subject of test [18] is Rattus norvegicus. Put plainly: Antagonist activity after subcutaneously administration of nicotine at a dose of 2.5 mg/kg in tail-flick test (value in parentheses is 95% confidence limits). As to conditions: route subcutaneous. Format: functional.

Molecules are shown by their SMILES.

Chain of Neuronal acetylcholine receptor subunit alpha-7 (Q05941 whole entry): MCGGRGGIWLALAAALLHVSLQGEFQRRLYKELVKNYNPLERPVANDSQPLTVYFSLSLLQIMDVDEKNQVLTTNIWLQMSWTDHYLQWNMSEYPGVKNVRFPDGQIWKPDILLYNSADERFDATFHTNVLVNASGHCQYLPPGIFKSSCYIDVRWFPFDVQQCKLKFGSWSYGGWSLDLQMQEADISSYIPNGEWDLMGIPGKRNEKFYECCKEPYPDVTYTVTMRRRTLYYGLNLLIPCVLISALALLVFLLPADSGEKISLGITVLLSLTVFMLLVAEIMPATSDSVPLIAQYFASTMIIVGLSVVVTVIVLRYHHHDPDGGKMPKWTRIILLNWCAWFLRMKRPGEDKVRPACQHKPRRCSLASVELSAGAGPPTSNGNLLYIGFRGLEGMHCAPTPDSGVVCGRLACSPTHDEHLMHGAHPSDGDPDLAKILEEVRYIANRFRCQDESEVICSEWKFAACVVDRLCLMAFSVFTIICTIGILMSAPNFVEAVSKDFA

The term Ki denotes the equilibrium dissociation constant of an inhibitor or competing ligand from its target. For orientation: ED50 means the dose that gives a 50% effect, or the effect in half of the subjects. Compound `Nc1ncc([C@H]2CC3CCC2N3)cc1Br` (stereo partly drawn) returned a Ki in [1] of 0.29 nM. The ED50 came out at 50 µg/kg in test [2], 70 µg/kg in test [3] and 75 µg/kg in test [4].
For the compound `Nc1ccc([C@H]2CC3CCC2N3)cn1` (stereo partly drawn), the Ki in [1] was determined as 1.3 nM.
Consider `Nc1ncc([C@H]2CC3CCC2N3)cc1I` (stereo partly drawn), for which the Ki in test [1] was 0.52 nM; in test [5], 34.1 nM. Also, the ED50 in test [2] came to 500 µg/kg; in [3], 650 µg/kg; in [4], 300 µg/kg.
Consider `Fc1ncc([C@H]2CC3CCC2N3)cc1Br` (stereo partly drawn), for which the Effect in test [6] and in test [7] was 0% in each case. Besides, affinity in test [1] was put at a Ki of 0.071 nM. Besides, the results for the ED50 in test [2], in test [3] and in test [4] were 1200 µg/kg, 700 µg/kg and 10 µg/kg, respectively.
The compound `Fc1ncc([C@H]2CC3CCC2N3)cc1Cl` (stereo partly drawn) gave a Ki in test [1] of 0.02 nM.
In the case of `Clc1ccc(C2CC3CCC2N3)cn1` (racemic) [EPIBATIDINE], the ED50 in [8] stood at 4 µg/kg; in test [9], 6 µg/kg; in test [10] it was 4 µg/kg.
In test [1], `Fc1ccc(C2CC3CCC2N3)cn1` (stereo not drawn) displayed an inhibition constant Ki of 0.027 nM.
In test [1], `Clc1ncc(C2CC3CCC2N3)cc1I` (stereo not drawn) returned a Ki of 0.008 nM. Besides, the results for the ED50 in test [2], in [3] and in [4] were 140 µg/kg, 240 µg/kg and 27 µg/kg, respectively. The Effect in [11] is 4%; in test [12], 0%.
Take `Fc1cc([C@H]2CC3CCC2N3)cnc1F` (stereo partly drawn): in test [1], the Ki amounted to 0.055 nM.
In test [1], `Clc1ncc([C@H]2CC3CCC2N3)cc1Br` (stereo partly drawn) showed a Ki of 0.013 nM. The ED50 in [2] came to 20 µg/kg; in test [3], 30 µg/kg; in test [4], 40 µg/kg.
On to `Oc1ccc([C@H]2CC3CCC2N3)cn1` (stereo partly drawn), for which the Ki in test [1] amounted to 1.5 nM; in test [5] it was 675 nM. The results for the ED50 in test [8], in test [9] and in [10] were 500 µg/kg, 1500 µg/kg and 1200 µg/kg, respectively.
`Ic1ccc(C2CC3CCC2N3)cn1` (stereo not drawn) gave a Ki in test [1] of 0.07 nM.
Take `Fc1cc(C2CC3CCC2N3)cnc1Cl` (stereo not drawn): the Ki in test [1] is 0.025 nM; in test [5], 3.43 nM. For the same compound, the ED50 came to 9 µg/kg in test [2], 8 µg/kg in [3] and 6 µg/kg in [4].
`Brc1cc([C@H]2CC3CCC2N3)cnc1I` (stereo partly drawn): the Effect in test [6] worked out at 4%; in test [13] it was 0%. Also, in [1], the affinity, expressed as Ki, was 0.027 nM. The figures for the ED50 in test [2], in test [3] and in [4] were 240 µg/kg, 270 µg/kg and 40 µg/kg, respectively.
Turning to `Oc1ncc([C@H]2CC3CCC2N3)cc1Br` (stereo partly drawn), the Ki in [1] came out at 14.4 nM. Moreover, the values for the Effect in [14], in [15] and in test [16] were 9%, 0% and 1%, respectively.
Consider `Fc1ncc([C@H]2CC3CCC2N3)cc1I` (stereo partly drawn), for which the Effect in [6] and in test [7] was 0% in each case. In [1], the Ki came out at 0.051 nM. Further, the ED50 in test [2] stood at 900 µg/kg; in test [3], 700 µg/kg; in [4] it was 300 µg/kg.
Take `Clc1cc([C@H]2CC3CCC2N3)cnc1Cl` (stereo partly drawn): the Ki was determined as 0.014 nM in test [1] and 1.12 nM in test [5]. The ED50 in [2] was 30 µg/kg; in [3], 50 µg/kg; in [4], 20 µg/kg.
On to `Brc1ccc([C@H]2CC3CCC2N3)cn1` (stereo partly drawn), for which affinity in test [1] was put at a Ki of 0.023 nM.
The compound `Brc1cc([C@H]2CC3CCC2N3)cnc1Br` (stereo partly drawn) came in with a Ki in test [1] of 0.015 nM.
As for `Nc1cc([C@H]2CC3CCC2N3)cnc1Cl` (stereo partly drawn), the figures for the Ki in test [1] and in [5] were 0.001 nM and 13.9 nM, respectively. Moreover, the ED50 in test [2] came to 20 µg/kg; in test [3], 20 µg/kg; in test [4], 17 µg/kg. For the same compound, the AD50 came out at 0.6 µg/kg in test [17] and 0.03 µg/kg in test [18].
